Patent US8771644B2, “Imaging probes” (Sanofi, priority 2007, dated 2014)

Target: Cath X (Homo sapiens, UniProt Q9UBR2)
Experiment: in vitro activity assay (fluorescence, substrate cleavage) with Cath X
Type: biochemical
Conditions: measurement performed at pH 5.5
Description: […] The substrates were solved in DMSO and added to enzyme solution with a final concentration of 50 μM.
Fluorescence was measured with an Tecan SAFIRE II spectrometer (excitation wavelength: 336 nm; emission wavelength: 490 nm; excitation band: 10.0 nm; emission band: 10.0 nm; amplification (manual): 90).

Sequence of Cath X (Q9UBR2 62-303): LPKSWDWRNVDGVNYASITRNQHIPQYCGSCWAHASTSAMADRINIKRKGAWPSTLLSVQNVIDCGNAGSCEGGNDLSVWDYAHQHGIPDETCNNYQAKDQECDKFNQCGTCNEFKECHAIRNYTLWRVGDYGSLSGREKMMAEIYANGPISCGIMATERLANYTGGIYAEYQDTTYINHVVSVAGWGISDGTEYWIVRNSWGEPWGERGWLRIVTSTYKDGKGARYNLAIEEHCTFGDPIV

`CN(C)c1ccc2c(c1)Oc1cc(N(C)C)ccc1C21OC(=O)c2cc(C(=O)NCC[C@H](NC(=O)[C@H](CC3CCCCC3)NC(=O)N3CCOCC3)C(=O)NCCNC(=O)c3ccc(-c4c5ccc(=O)cc-5oc5cc(O)ccc45)c(C(=O)O)c3)ccc21` [Example 10] gave a Kcat of 287.4 s⁻¹ and a Vmax of 7997 nmol/s.
